From patent publication US20250074891A1 (Anaxis Pharma Pty Ltd., priority 2021, published 2025)

Columns and labels:
Settings in all cases: Table 35
MLKL (full length) = MLKL (full length) (Homo sapiens (Human), UniProt Q8NB16); assay: KINOMEscan binding assay, MLKL (full length)
Experimental: (§1) Kinase assays. For most assays, kinase-tagged T7 phage strains were grown in parallel in 24-well blocks in an E. coli host derived from the BL21 strain. E. coli were grown to log-phase and infected with T7 phage from a frozen stock (multiplicity of infection=0.4) and incubated with shaking at 32° C. until lysis (90-150 minutes).
(§2) The Hill Slope was set to −1.

RIP3 = RIP3 (Homo sapiens (Human), UniProt Q9Y572); assay: KINOMEscan binding assay, RIP3
Sequence of RIP3 (Q9Y572 whole entry): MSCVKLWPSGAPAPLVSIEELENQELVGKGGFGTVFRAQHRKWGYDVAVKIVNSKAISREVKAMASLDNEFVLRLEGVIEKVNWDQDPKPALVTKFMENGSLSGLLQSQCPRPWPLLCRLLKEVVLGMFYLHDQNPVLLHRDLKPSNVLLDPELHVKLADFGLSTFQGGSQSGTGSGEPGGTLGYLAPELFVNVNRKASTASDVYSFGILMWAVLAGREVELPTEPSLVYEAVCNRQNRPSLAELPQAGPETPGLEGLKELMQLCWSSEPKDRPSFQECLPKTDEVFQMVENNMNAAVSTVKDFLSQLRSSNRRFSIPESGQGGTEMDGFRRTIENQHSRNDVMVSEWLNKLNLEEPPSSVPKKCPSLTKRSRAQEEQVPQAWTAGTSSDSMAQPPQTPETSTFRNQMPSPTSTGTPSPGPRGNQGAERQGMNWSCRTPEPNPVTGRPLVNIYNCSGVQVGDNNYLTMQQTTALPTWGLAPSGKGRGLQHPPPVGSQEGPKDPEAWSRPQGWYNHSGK
Experimental: as §1, §2

RIP1 = RIP1 (Homo sapiens (Human), UniProt Q13546); assay: KINOMEscan binding assay, RIP1
Sequence of RIP1 (Q13546 whole entry): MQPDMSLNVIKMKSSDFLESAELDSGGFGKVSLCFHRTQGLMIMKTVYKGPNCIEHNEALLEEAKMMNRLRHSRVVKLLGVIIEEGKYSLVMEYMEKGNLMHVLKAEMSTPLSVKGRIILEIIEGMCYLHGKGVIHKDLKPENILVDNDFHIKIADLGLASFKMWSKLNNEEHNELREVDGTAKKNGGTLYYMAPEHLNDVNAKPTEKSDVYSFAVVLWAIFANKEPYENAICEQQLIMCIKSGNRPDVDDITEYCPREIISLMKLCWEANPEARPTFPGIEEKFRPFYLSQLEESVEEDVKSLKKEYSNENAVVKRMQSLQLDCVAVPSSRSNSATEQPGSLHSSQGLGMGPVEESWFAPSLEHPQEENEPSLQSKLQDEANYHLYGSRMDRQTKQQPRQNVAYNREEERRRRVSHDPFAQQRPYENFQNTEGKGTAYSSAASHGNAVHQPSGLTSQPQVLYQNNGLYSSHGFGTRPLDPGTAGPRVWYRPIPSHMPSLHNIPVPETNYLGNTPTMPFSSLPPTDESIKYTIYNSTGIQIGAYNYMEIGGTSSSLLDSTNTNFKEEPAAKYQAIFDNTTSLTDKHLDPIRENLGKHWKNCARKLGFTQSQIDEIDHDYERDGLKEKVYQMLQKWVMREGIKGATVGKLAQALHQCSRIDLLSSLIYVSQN

Sequence of MLKL (full length) (Q8NB16 whole entry): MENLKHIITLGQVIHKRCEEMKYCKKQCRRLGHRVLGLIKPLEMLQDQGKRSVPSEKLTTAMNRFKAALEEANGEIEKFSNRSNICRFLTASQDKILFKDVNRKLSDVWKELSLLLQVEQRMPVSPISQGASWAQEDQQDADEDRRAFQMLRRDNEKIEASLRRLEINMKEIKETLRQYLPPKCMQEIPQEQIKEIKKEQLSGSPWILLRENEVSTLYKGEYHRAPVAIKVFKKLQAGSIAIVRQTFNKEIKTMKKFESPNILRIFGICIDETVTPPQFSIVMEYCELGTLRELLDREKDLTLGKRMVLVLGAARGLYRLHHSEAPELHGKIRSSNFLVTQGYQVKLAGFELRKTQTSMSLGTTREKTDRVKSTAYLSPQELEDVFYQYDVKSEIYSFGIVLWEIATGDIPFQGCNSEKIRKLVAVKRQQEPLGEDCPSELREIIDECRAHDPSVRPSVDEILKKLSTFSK

| Compound | Kd (MLKL (full length)) [µM] | Kd (RIP3) [µM] | Kd (RIP1) [µM] |
| --- | --- | --- | --- |
| CCS(=O)(=O)Nc1ccc(-c2n[nH]c(Nc3ccccn3)c2C(N)=O)cc1OCc1cccc(Cl)c1 [Compound 38, 3-(3-((3-chlorobenzyl)oxy)-4-(ethylsulfon-amido)phenyl)-5-(pyridin-2-ylamino)-1H-pyrazole-4-carboxamide] | < 0.01 | > 30 | – |
| CCS(=O)(=O)Nc1ccc(-c2n[nH]c(Nc3cnc4cc(Cl)ccc4n3)c2C(N)=O)cc1 [Compound 65, 5-((6-chloroquinoxalin-2-yl)amino)-3-(4-(ethylsulfonamido)phenyl)-1H-pyrazole-4-carboxamide] | – | > 30 | > 30 |
| CC(C)(C)S(=O)(=O)Nc1ccc(-c2n[nH]c(Nc3cnccn3)c2C(N)=O)cc1 [Compound 69, 3-(4-((1,1-dimethylethyl)sulfonamido)phenyl)-5-(pyrazin-2-ylamino)-1H-pyrazole-4-carboxamide] | – | > 30 | > 30 |
| NC(=O)c1c(-c2ccc(NS(=O)(=O)CC3CCC3)cc2)n[nH]c1Nc1cnccn1 [Compound 81, 3-(4-((cyclobutylmethyl)sulfonamido)phenyl)-5-(pyrazin-2-ylamino)-1H-pyrazole-4-carboxamide] | – | > 30 | > 30 |
| COc1ccc(S(=O)(=O)Nc2ccc(-c3n[nH]c(Nc4cnccn4)c3C(N)=O)cc2)cc1 [Compound 82, 3-(4-((4-methoxyphenyl)sulfonamido)phenyl)-5-(pyrazin-2-ylamino)-1H-pyrazole-4-carboxamide] | – | > 30 | > 30 |
| NC(=O)c1c(-c2ccc(NS(=O)(=O)Cc3cccc(C(F)(F)F)c3)cc2)n[nH]c1Nc1cnccn1 [Compound 83] | – | > 30 | > 30 |
| CCCS(=O)(=O)Nc1ccc(-c2n[nH]c(Nc3cnccn3)c2C(N)=O)cc1 [Compound 97, 3-(4-(propylsulfonamido)phenyl)-5-(pyrazin-2-ylamino)-1H-pyrazole-4-carboxamide] | – | > 30 | > 30 |
| CCS(=O)(=O)Nc1ccc(-c2n[nH]c(Nc3cc(C)ncc3F)c2C(N)=O)cc1 [Compound 111, 3-(4-(ethylsulfonamido)phenyl)-5-((5-fluoro-2-methylpyridin-4-yl)amino)-1H-pyrazole-4-carboxamide] | – | > 30 | > 30 |
| COCCOc1cc(Nc2[nH]nc(-c3ccc(NS(=O)(=O)CCN(C)C)cc3)c2C(N)=O)ccn1 [Compound 116, 3-(4-((2-(dimethylamino)ethyl)sulfonamido)phenyl)-5-((2-(2-methoxyethoxy)pyridin-4-yl)amino)-1H-pyrazole-4-carboxamide] | – | > 30 | > 30 |
| CCS(=O)(=O)Nc1ccc(-c2n[nH]c(Nc3ccnc(C)n3)c2C(N)=O)cc1 [Compound 125, 3-(4-(ethylsulfonamido)phenyl)-5-((2-methylpyrimidin-4-yl)amino)-1H-pyrazole-4-carboxamide] | – | > 30 | > 30 |
| Cc1ccc(CS(=O)(=O)Nc2ccc(-c3n[nH]c(Nc4ccccn4)c3C(N)=O)cc2)cc1 [Compound 132, 5-(pyridin-2-ylamino)-3-(4-((p-tolylmethyl)sulfonamido)phenyl)-1H-pyrazole-4-carboxamide] | – | > 30 | > 30 |
| CCS(=O)(=O)Nc1ccc(-c2n[nH]c(Nc3ccc4ccc(Cl)cc4n3)c2C(N)=O)cc1OCc1ccc(F)cc1 [Compound 138, 5-((7-chloroquinolin-2-yl)amino)-3-(4-(ethylsulfonamido)-3-((4-fluorobenzyl)oxy)phenyl)-1H-pyrazole-4-carboxamide] | – | > 30 | > 30 |
| CCS(=O)(=O)Nc1ccc(-c2n[nH]c(Nc3cccc(C(F)(F)F)n3)c2C(N)=O)c(OCc2ccc(F)cc2)c1 [Compound 141, 3-(4-(ethylsulfonamido)-2-((4-fluorobenzyl)oxy)phenyl)-5-((6-(trifluoromethyl)pyridine-2-yl)amino)-1H-pyrazole-4-carboxamide] | – | > 30 | > 30 |
| NC(=O)c1c(-c2ccc(NS(=O)(=O)CCC(F)(F)F)c(OCc3ccc(F)cc3)c2)n[nH]c1Nc1cccc(C(F)(F)F)n1 [Compound 182, 3-(3-((4-fluorobenzyl)oxy)-4-((3,3,3-trifluoropropyl)sulfonamido)phenyl)-5-((6-(trifluoromethyl)pyridine-2-yl)amino)-1H-pyrazole-4-carboxamide] | – | > 30 | > 30 |
| CCS(=O)(=O)Nc1ccc(-c2n[nH]c(Nc3cnccn3)c2C(N)=O)cc1OCC1CCCN(C)C1 (centres unmarked) [Compound 187, 3-(4-(ethylsulfonamido)-3-((1-methylpiperidin-3-yl)methoxy)phenyl)-5-(pyrazin-2-ylamino)-1H-pyrazole-4-carboxamide] | – | > 30 | > 30 |
| CCS(=O)(=O)Nc1ccc(-c2n[nH]c(Nc3cccnc3C(F)(F)F)c2C(N)=O)cc1OCc1ccc(F)cc1 [Compound 192, 3-(4-(ethylsulfonamido)-3-((4-fluorobenzyl)oxy)phenyl)-5-((2-(trifluoromethyl)pyridine-3-yl)amino)-1H-pyrazole-4-carboxamide] | – | > 30 | > 30 |

| Compound | Kd (MLKL (full length)) [µM] | Kd (RIP3) [µM] | Kd (RIP1) [µM] |
| --- | --- | --- | --- |
| CCS(=O)(=O)Nc1ccc(-c2n[nH]c(Nc3cccc(C(F)(F)F)n3)c2C(N)=O)cc1OCC1CCCCC1 [Compound 200] | – | > 30 | > 30 |
| CCS(=O)(=O)Nc1ccc(-c2n[nH]c(Nc3cnccn3)c2C(N)=O)cc1OCC1CCN(C)CC1 [Compound 203, 3-(4-(ethylsulfonamido)-3-((1-methylpiperidin-4-yl)methoxy)phenyl)-5-(pyrazin-2-ylamino)-1H-pyrazole-4-carboxamide] | – | > 30 | > 30 |
| CCS(=O)(=O)Nc1ccc(-c2n[nH]c(Nc3ccc(C(F)(F)F)cn3)c2C(N)=O)cc1OCc1ccc(F)cc1 [Compound 207] | – | > 30 | > 30 |
| CCS(=O)(=O)Nc1ccc(-c2n[nH]c(Nc3cnccn3)c2C(N)=O)c(OCc2cccc(F)c2)c1 [Compound 208, 3-(4-(ethylsulfonamido)-2-((3-fluorobenzyl)oxy)phenyl)-5-(pyrazin-2-ylamino)-1H-pyrazole-4-carboxamide] | – | > 30 | > 30 |
| CCS(=O)(=O)Nc1ccc(-c2n[nH]c(Nc3cnccn3)c2C(N)=O)c(OC)c1 [Compound 209, 3-(4-(ethylsulfonamido)-2-methoxyphenyl)-5-(pyrazin-2-ylamino)-1H-pyrazole-4-carboxamide] | – | > 30 | > 30 |
| CCS(=O)(=O)Nc1ccc(-c2n[nH]c(Nc3cnccn3)c2C(N)=O)cc1OCc1cccc(OC(F)(F)F)c1 [Compound 214, 3-(4-(ethylsulfonamido)-3-((3-(trifluoromethoxy)benzyl)oxy)phenyl)-5-(pyrazin-2-ylamino)-1H-pyrazole-4-carboxamide] | – | > 30 | > 30 |
| CCS(=O)(=O)Nc1ccc(-c2n[nH]c(Nc3cnccn3)c2C(N)=O)cc1OCc1ccc(OC(F)(F)F)cc1 [Compound 215, 3-(4-(ethylsulfonamido)-3-((4-(trifluoromethoxy)benzyl)oxy)phenyl)-5-(pyrazin-2-ylamino)-1H-pyrazole-4-carboxamide] | – | > 30 | > 30 |
| CCS(=O)(=O)Nc1ccc(-c2n[nH]c(Nc3cnccn3)c2C(N)=O)cc1OCc1ccc(C(F)(F)F)cc1 [Compound 216, 3-(4-(ethylsulfonamido)-3-((4-(trifluoromethyl)benzyl)oxy)phenyl)-5-(pyrazin-2-ylamino)-1H-pyrazole-4-carboxamide] | – | > 30 | > 30 |
| CCS(=O)(=O)Nc1ccc(-c2n[nH]c(Nc3cnccn3)c2C(N)=O)cc1OCc1cccc(C(F)(F)F)c1 [Compound 218, 3-(4-(ethylsulfonamido)-3-((3-(trifluoromethyl)benzyl)oxy)phenyl)-5-(pyrazin-2-ylamino)-1H-pyrazole-4-carboxamide] | – | > 30 | > 30 |
| CCS(=O)(=O)Nc1ccc(-c2n[nH]c(Nc3ccc4cc(Cl)ccc4n3)c2C(N)=O)cc1OCc1ccc(F)cc1 [Compound 220, 5-((6-chloroquinolin-2-yl)amino)-3-(4-(ethylsulfonamido)-3-((4-fluorobenzyl)oxy)phenyl)-1H-pyrazole-4-carboxamide] | – | > 30 | > 30 |
| C[C@H](Oc1cc(NS(=O)(=O)C(F)F)ccc1-c1n[nH]c(Nc2cnccn2)c1C(N)=O)c1ccc(F)cc1 [Compound 243, 3-[4-(difluoromethanesulfonamido)-2-[(1 S)-1-(4-fluorophenyl)ethoxy]phenyl]-5-[(pyrazin-2-yl)amino]-1H-pyrazole-4-carboxamide] | – | > 30 | > 30 |
| C[C@H](Oc1cc(NS(=O)(=O)CC(F)(F)F)ccc1-c1n[nH]c(Nc2cnccn2)c1C(N)=O)c1ccc(F)cc1 [Compound 244, 3-{2-[(1S)-1-(4-fluorophenyl)ethoxy]-4-(2,2,2-trifluoroethanesulfonamido)phenyl}-5-[(pyrazin-2-yl)amino]-1H-pyrazole-4-carboxamide] | – | > 30 | > 30 |
| C[C@@H](Oc1cc(NS(=O)(=O)CC(F)(F)F)ccc1-c1n[nH]c(Nc2cnccn2)c1C(N)=O)c1ccc(F)cc1 [Compound 254, 3-{2-[(1R)-1-(4-fluorophenyl)ethoxy]-4-(2,2,2-trifluoroethanesulfonamido)phenyl}-5-[(pyrazin-2-yl)amino]-1H-pyrazole-4-carboxamide] | – | > 30 | > 30 |
| C[C@@H](Oc1cc(NS(=O)(=O)C(F)F)ccc1-c1n[nH]c(Nc2cnccn2)c1C(N)=O)c1ccc(F)cc1 [Compound 255, 3-[4-(difluoromethanesulfonamido)-2-[(1R)-1-(4-fluorophenyl)ethoxy]phenyl]-5-[(pyrazin-2-yl)amino]-1H-pyrazole-4-carboxamide] | – | > 30 | > 30 |
| C[C@H](Oc1cc(-c2n[nH]c(Nc3cc(C45CC6CC(CC(C6)C4)C5)on3)c2C(N)=O)ccc1NS(=O)(=O)C(F)F)c1ccc(F)cc1 [Compound 304] | – | > 30 | > 30 |
